In ChEMBL document CHEMBL3046950, “Insecticide resistance traits differ among and within host races in Aphis gossypii” (2010):

Key:
Aphis gossypii [1] = assay type: functional
Aphis gossypii [2] = assay type: functional; remark: listed apart in the source
Aphis gossypii [3] = assay type: functional; remark: listed apart in the source
Aphis gossypii [4] = assay type: functional; remark: listed apart in the source
Aphis gossypii [5] = assay type: functional; remark: listed apart in the source
Aphis gossypii [6] = assay type: functional; remark: listed apart in the source
Aphis gossypii [7] = experiment: Insecticidal activity against Aphis gossypii clone Ivo (cotton aphid) in cotton plant leaf assessed as mortality after 24 hr by leaf disk assay; assay type: functional
Aphis gossypii [8] = experiment: Insecticidal activity against Aphis gossypii clone Burk (cotton aphid) in cotton plant leaf assessed as mortality after 24 hr by leaf disk assay; assay type: functional
Aphis gossypii [9] = experiment: Insecticidal activity against Aphis gossypii clone Auber (cotton aphid) in egg plant leaf assessed as mortality after 24 hr by leaf disk assay; assay type: functional
Aphis gossypii [10] = experiment: Insecticidal activity against Aphis gossypii clone PsP4 (cotton aphid) in pepper plant leaf assessed as mortality after 24 hr by leaf disk assay; assay type: functional
Aphis gossypii [11] = assay type: functional, clone C4
Aphis gossypii [12] = assay type: functional, clone C9
Aphis gossypii [13] = assay type: functional, clone NM1
Aphis gossypii [14] = experiment: Insecticidal activity against Aphis gossypii clone Burk (cotton aphid) in egg plant leaf assessed as mortality after 24 hr by leaf disk assay in presence of piperonyl butoxide; assay type: functional
Aphis gossypii [15] = experiment: Insecticidal activity against Aphis gossypii clone Auber (cotton aphid) in egg plant leaf assessed as mortality after 24 hr by leaf disk assay in presence of piperonyl butoxide; assay type: functional
Aphis gossypii [16] = experiment: Insecticidal activity against Aphis gossypii clone Auber (cotton aphid) in egg plant leaf assessed as mortality after 24 hr by leaf disk assay in presence of S,S,S-tri-n-butyl phosphorotrithioate; assay type: functional
Aphis gossypii [17] = experiment: Insecticidal activity against Aphis gossypii clone NM1 (cotton aphid) in zucchini or squash leaf assessed as mortality after 24 hr by leaf disk assay in presence of S,S,S-tri-n-butyl phosphorotrithioate; assay type: functional
Aphis gossypii [18] = experiment: Insecticidal activity against Aphis gossypii clone NM1 (cotton aphid) in zucchini or squash leaf assessed as mortality after 24 hr by leaf disk assay in presence of piperonyl butoxide; assay type: functional
Aphis gossypii [19] = experiment: Synergist ratio, ratio of LC50 for Aphis gossypii clone Burk (cotton aphid) in presence of S,S,S-tri-n-butyl phosphorotrithioate to LC50 for Aphis gossypii clone Burk; assay type: functional
Aphis gossypii [20] = experiment: Synergist ratio, ratio of LC50 for Aphis gossypii clone Burk (cotton aphid) in presence of piperonyl butoxide to LC50 for Aphis gossypii clone […]; assay type: functional
Aphis gossypii [21] = experiment: Synergist ratio, ratio of LC50 for Aphis gossypii clone NM1 (cotton aphid) in presence of S,S,S-tri-n-butyl phosphorotrithioate to LC50 for Aphis gossypii clone NM1; assay type: functional
Aphis gossypii [22] = experiment: Synergist ratio, ratio of LC50 for Aphis gossypii clone NM1 (cotton aphid) in presence of piperonyl butoxide to LC50 for Aphis gossypii clone NM1; assay type: functional
Aphis gossypii [23] = experiment: Synergist ratio, ratio of LC50 for Aphis gossypii clone Auber (cotton aphid) in presence of piperonyl butoxide to LC50 for Aphis gossypii clone Auber; assay type: functional
Aphis gossypii [24] = experiment: Synergist ratio, ratio of LC50 for Aphis gossypii clone Auber (cotton aphid) in presence of S,S,S-tri-n-butyl phosphorotrithioate to LC50 for Aphis gossypii clone Auber; assay type: functional
Aphis gossypii [25] = experiment: Insecticidal activity against Aphis gossypii clone Burk (cotton aphid) in egg plant leaf assessed as mortality after 24 hr by leaf disk assay in presence of S,S,S-tri-n-butyl phosphorotrithioate; assay type: functional

SMILES | RatioLC50 (Aphis gossypii [1]) | RatioLC50 (Aphis gossypii [2]) | RatioLC50 (Aphis gossypii [3]) | RatioLC50 (Aphis gossypii [4]) | RatioLC50 (Aphis gossypii [5]) | RatioLC50 (Aphis gossypii [6]) | LC50 (Aphis gossypii [7]) [ugAi/ml] | LC50 (Aphis gossypii [8]) [ugAi/ml] | LC50 (Aphis gossypii [9]) [ugAi/ml] | LC50 (Aphis gossypii [10]) [ugAi/ml] | LC50 (Aphis gossypii [11]) [ugAi/ml] | LC50 (Aphis gossypii [12]) [ugAi/ml] | LC50 (Aphis gossypii [13]) [ugAi/ml] | other results
C/C(=N\C#N)N(C)Cc1ccc(Cl)nc1 | 1 | 1.6 | 2 | 0.6 | 0.9 | 1.1 | 4 | 6.4 | 7.9 | 2.5 | 3.7 | 4.3 | 3.9 | 
CC1(C)C(C=C(Cl)Cl)C1C(=O)OC(C#N)c1cccc(Oc2ccccc2)c1 (stereo not drawn) [ALPHA-CYPERMETHRIN] | 0.5 | 473 | 41.2 | 1.4 | 0.4 | 0.5 | 7.1 | 6763.5 | 504 | 19.7 | 6.3 | 7.2 | 10.9 | LC50 (Aphis gossypii [14]): 207 ugAi/ml; LC50 (Aphis gossypii [15]): 23360 ugAi/ml; LC50 (Aphis gossypii [16]): 8.5 ugAi/ml; LC50 (Aphis gossypii [17]): 119 ugAi/ml; LC50 (Aphis gossypii [18]): 13.2 ugAi/ml; RatioLC50 (Aphis gossypii [19]): 1.3; RatioLC50 (Aphis gossypii [20]): 1; RatioLC50 (Aphis gossypii [21]): 1.3; RatioLC50 (Aphis gossypii [22]): 0.8; RatioLC50 (Aphis gossypii [23]): 4.2; RatioLC50 (Aphis gossypii [24]): 2.4; LC50 (Aphis gossypii [25]): 18516 ugAi/ml
CCCCN(CCCC)SN(C)C(=O)Oc1cccc2c1OC(C)(C)C2 [CARBOSULFAN] | 0.5 | 0.7 | 0.9 | 0.9 | 1.2 | 1.2 | 2.2 | 3.1 | 4 | 4.2 | 5.7 | 5.6 | 4.6 | 
Clc1ccc(C(c2ccc(Cl)cc2)C(Cl)(Cl)Cl)cc1 [CHLOROPHENOTHANE] |  | 148.7 | 1.4 |  |  |  |  | 30738.4 | 291.6 |  |  |  | 206.7 | 
CCCSP(=O)(OCC)Oc1ccc(Br)cc1Cl (centres undefined) [PROFENOFOS] | 0.4 | 4.4 | 5.3 | 6.8 | 1.3 | 1.5 | 4.3 | 50 | 59.6 | 77.1 | 15 | 17.2 | 11.3 | 
